From US20240254107A1, “RNA-TARGETING LIGANDS, COMPOSITIONS THEREOF, AND METHODS OF MAKING AND USING THE SAME” (THE UNIVERSITY OF NORTH CAROLINA AT CHAPEL HILL, priority 2021, published 2024) come the findings set out here.

In general, Kd refers to the equilibrium constant for the complex coming apart.

For experiment [1], the target named is TPP riboswitch RNA. Description: Isothermal titration calorimetry (ITC) binding to TPP riboswitch RNA. The following applies: for binding cooperativity with 2: ITC with and without pre-bound 2.
Experiment [2] has as its system TPP riboswitch region of the screening construct. Description: SHAPE / SHAPE-MaP fragment screening and replicate hit validation. The class given is binding. The settings on record: RNA pre-bound to primary fragment, fragment 1 mM, 5NIA reagent. As for the experimental part: Fragments were obtained as a fragment screening library from Maybridge, which was a subset of their Ro3 diversity fragment library and contained 1500 compounds dissolved in DMSO at 50 mM. Most of these compounds adhere to the “rule of three” for fragment compounds; having a molecular mass <300 Da, containing ≤3 hydrogen bond donors and ≤3 hydrogen bond acceptors, and ClogP ≤3.0. All compounds used for ITC, with the exception of those listed in Example 5, were purchased from Millipore-Sigma and used without further purification. Screening experiments were carried out in 25 μL in 96-well plate format on a Tecan Freedom Evo-150 liquid handler equipped with an 8-channel air displacement pipetting arm, disposable filter tips, robotic manipulator arm, and an EchoTherm RIC20 remote controlled heating/cooling dry bath (Torrey Pines Scientific). Liquid handler programs used for screening are available upon request. […]
Once screening of test fragments is complete, statistical tests are carried out to identify differences in modification rates of a given nucleotide. […] That is, if m1 modifications of a tested nucleotide were counted among n1 reads in sample 1 and m2 modifications were counted among n2 reads in sample 2, the tested null hypothesis predicts that among all the counted modifications (m1+m2), the proportion of modifications in sample 1 will be p1=n1/(n1+n2). […]

Where [3] appears, read: Table 4, fragment 5 analogs, pendant groups, ITC, read-out: Kd.
Setting [4] is: Table 8, linked analogs, read-out: Kd.
The mark [5] stands for this setting: Table 4, fragment 5 analogs, pendant groups, ITC.

Like-named read-outs stand apart in the source and are kept apart here.

In the case of `NC(=O)c1ccc(Cl)nc1` [Compound S15], the Kd in experiment [1] (setting [3]) is 1800 µM.

On to `O=C(CCCC(=O)Nc1ccc2nccnc2c1)NO` [KW-5-1, N^1-hydroxy-N^5-(quinoxalin-6-yl)glutaramide], for which the dissociation constant (Kd) in experiment [1] (setting [4]) amounted to 477 µM.

On to `CN(C)CCN(C=O)Cc1ccc2nccnc2c1` [KW-79-1, N-(2-(dimethylamino)ethyl)-N-(quinoxalin-6-ylmethyl)formamide], for which, in experiment [1] (setting [4]), the Kd is 69.1 µM.

For the compound `Cc1ncc(C[n+]2csc(CCOP(=O)([O-])OP(=O)(O)O)c2C)c(N)n1` [Compound 9, thiamine pyrophosphate, reference compound], the dissociation constant (Kd) in experiment [1] (Table 1, SHAPE-detected fragment hits, ITC, read-out: Kd) came to 0.028 ± 0.002 µM.

As for `CN(C)C(=O)c1ccc(Cl)nc1` [Compound S18], the Kd entry in experiment [1] (setting [5]) is reported as “no binding”.

On to `O=C(O)c1csc2ccc(Cl)cc12` [Compound 29], for which the “binding detected by SHAPE, second-round screen” value in experiment [2] is listed as “induced a very robust change in the SHAPE reactivity signal”.

`COC(=O)c1ccc(Oc2ccccc2)nc1` [Compound S10]: in experiment [1] (setting [5]), the Kd result is reported as “no binding”.

In the case of `COC(=O)c1ccc(Br)nc1` [Compound S5], the Kd in experiment [1] (setting [3]) was 440 µM.

On to `Cc1cccc2nccnc12` [Compound 23], for which the dissociation constant (Kd) in experiment [1] (Table 2B, fragment 2 analogs, pendant groups, ITC, read-out: Kd) was determined as 220 µM.

`NS(=O)(=O)c1ccc(Cl)nc1` [Compound S16]: the Kd in experiment [1] (setting [3]) turned out to be 1300 µM.

On to `COC(=O)c1ccc(C(F)(F)F)nc1` [Compound S9], for which the Kd result in experiment [1] (setting [5]) was “no binding”.

Turning to `COC(=O)c1cnc(Cl)cc1Cl` [Compound S12], in experiment [1] (setting [3]), the Kd was found to be 93 µM. Besides, in experiment [1] (relative to fragment 5), the “fold higher affinity for the TPP riboswitch than fragment 5” value was “approximately threefold”.

In the case of `CCOC(=O)c1ccc(Cl)nc1` [Compound S13], in experiment [1] (setting [3]), the Kd turned out to be 600 µM.

With `CCOc1ccc(C(=O)OC)cn1` [Compound S7], in experiment [1] (setting [3]), the dissociation constant (Kd) turned out to be 1800 µM.

For `COC(=O)c1ccc(C)nc1` [Compound S8], the Kd in experiment [1] (setting [3]) amounted to 1100 µM.

Take `COC(=O)c1ccc([N+](=O)[O-])nc1` [Compound S6]: in experiment [1] (setting [3]), the Kd was determined as 390 µM.

Regarding `O=C(CNc1ccc2nccnc2c1)NO` [KW-31-1, N-hydroxy-2-(quinoxalin-6-ylamino)acetamide], the Kd in experiment [1] (setting [4]) was 58.1 µM.

As for `OCc1ccc(Cl)nc1` [Compound S14], the Kd in experiment [1] (setting [3]) was determined as 1300 µM.

Regarding `O=C(CNc1cnccc1N1CCNCC1)Nc1ccc2nccnc2c1` [KW-29-1, 2-((4-(piperazin-1-yl)pyridin-3-yl)amino)-N-(quinoxalin-6-yl)acetamide], the Kd in experiment [1] (setting [4]) was determined as 10.5 µM.

As for `CCS(=O)(=O)c1ccc(Cl)nc1` [Compound S17], in experiment [1] (setting [5]), the dissociation constant (Kd) entry is reported as “no binding”.

Take `c1cc2[nH]cnc2cn1` [Compound 6]: the dissociation constant Kd in experiment [1] (Table 3, fragment 5 analogs, pyridine core modifications, ITC, read-out: Kd) turned out to be 265 µM.

As for `Cc1cnccc1N1CCNCC1` [Compound 32], in experiment [1], the “binding cooperativity with 2” value is listed as “clear, but modest, binding cooperativity”.

In the case of `COC(=O)c1cnc(Cl)c(Cl)c1` [Compound S11], in experiment [1] (setting [3]), the equilibrium dissociation constant (Kd) came to 820 µM.

Take `c1cc(N2CCNCC2)ccn1` [Compound 31]: in experiment [1], the “binding cooperativity with 2” value is “clear, but modest, binding cooperativity”.

As to `O=C(O)CCC(=O)Nc1ccc2nccnc2c1` [KW-16-1], the equilibrium dissociation constant (Kd) in experiment [1] (setting [4]) is 653 µM.
